Data reported in US20210309666A1, “SMALL MOLECULE MDM2 PROTEIN DEGRADERS” (THE REGENTS OF THE UNIVERSITY OF MICHIGAN, priority 2018, published 2021).

The compounds below were run on RS4;11 cells (assay: Cell growth inhibition, 4-day proliferation assay (WST-8)). Details: Homo sapiens, 96 h; RS4;11 cells, 4 days, WST-8; read-out: RS4; 11 Cells IC50.
Format: cell-based
Procedure: The effect of representative Compounds of the Disclosure on cell viability was determined in a 4-day proliferation assay. Cells were maintained in the appropriate culture medium with 10% FBS at 37° C. and an atmosphere of 5% CO2. Also, the effect of a MDM2 inhibitor (Cpd. A; see Compound Example No. 22 of U.S. Pat. No. 8,629,141) and a known MDM2 degrader (Cpd. D, see Cpd. No. 175 of WO 2017/0176957) on cell viability in various cell lines is also included in Table 5. Cpd. […] A and D. The structure of Cpd. A is:
Cells were seeded in 96-well flat bottom (Corning COSTAR, Corning, N.Y., cat #3595) at a density of 2,000-3,000 cells/well in 100 μL of culture medium. Compounds were serially diluted in the appropriate medium, and 100 μL of the diluted compounds were added to the appropriate wells of the cell plate. After the addition of compounds, the cells were incubated at 37° C. in an atmosphere of 5% CO2 for 4 days. Cell viability was determined using the WST (2-(2-methoxy-4-nitrophenyl)-3-(4-nitrophenyl)-5-(2,4-disulfophenyl)-2H-tetrazolium, monosodium salt) Cell Counting-8 Kit (Dojindo Molecular Technologies, Inc., Rockville, Md.) according to the manufacturers' instructions.
WST-8 reagent was added to each well at a final concentration of 10% (v/v), and then the plates were incubated at 37° C. for 1-2 hours for color development. The absorbance was measured at 450 nm using a SPECTRAmax PLUS plate reader (Molecular Devices, Sunnyvale, Calif.). The readings were normalized to the DMSO-treated cells and the half maximal inhibitory concentration (IC50) was calculated by nonlinear regression (four parameters sigmoid fitted with variable slope, least squares fit, and no constraint) analysis using the GraphPad Prism 5 software (GraphPad Software, La Jolla, Calif.).
`CCN1[C@@H](C(=O)Nc2ccc(C(=O)N3CCC(C#Cc4cccc5c4CN(C4CCC(=O)NC4=O)C5=O)CC3)cc2)[C@H](c2cccc(Cl)c2F)[C@]2(C(=O)Nc3cc(Cl)ccc32)C12CCCCC2` (stereo partly drawn) [Cpd. No. 24, (3′R,4′S,5′R)-6″-chloro-4′-(3-chloro-2-fluorophenyl)-N-(4-(4-((2-(2,6-dioxopiperidin-3-yl)-1-oxoisoindolin-4-yl)ethynyl)piperidine-1-carbonyl)phenyl)-1′-ethyl-2″-oxodispiro[cyclohexane-1,2′-pyrrolidine-3′,3″-indoline]-5′-carboxamide] was tested, and the IC50 was 6.6 nM. With `O=C1CCC(N2Cc3c(C#CCCCNC(=O)[C@H]4CC[C@H](NC(=O)[C@@H]5NC6(CCCCC6)[C@@]6(C(=O)Nc7cc(Cl)ccc76)[C@H]5c5ccccc5F)CC4)cccc3C2=O)C(=O)N1` (stereo partly drawn) [Cpd. No. 25, (3′R,4′S,5′R)-6″-chloro-N-(4-((5-(2-(2,6-dioxopiperidin-3-yl)-1-oxoisoindolin-4-yl)pent-4-yn-1-yl)carbamoyl)cyclohexyl)-4′-(2-fluorophenyl)-2″-oxodispiro[cyclohexane-1,2′-pyrrolidine-3′,3″-indoline]-5′-carboxamide] the IC50 was over 100 nM. `O=C1CCC(N2Cc3c(C#CCCCNC(=O)[C@H]4CC[C@H](NC(=O)[C@@H]5NC6(CCCCC6)[C@@]6(C(=O)Nc7cc(Cl)ccc76)[C@H]5c5cccc(Cl)c5)CC4)cccc3C2=O)C(=O)N1` (stereo partly drawn) [Cpd. No. 26, (3′R,4′R,5′R)-6″-chloro-4′-(3-chlorophenyl)-N-((1r,4R)-4-((5-(2-(2,6-dioxopiperidin-3-yl)-1-oxoisoindolin-4-yl)pent-4-yn-1-yl)carbamoyl)cyclohexyl)-2″-oxodispiro[cyclohexane-1,2′-pyrrolidine-3′,3″-indoline]-5′-carboxamide] was tested, and the IC50 was 0.7 nM. `O=C1CCC(N2Cc3c(C#CCCCNC(=O)[C@H]4CC[C@H](NC(=O)[C@@H]5NC6(CCCCC6)[C@@]6(C(=O)Nc7cc(Cl)ccc76)[C@H]5c5ccccc5)CC4)cccc3C2=O)C(=O)N1` (stereo partly drawn) [Cpd. No. 27, (3′R,4′R,5′R)-6″-chloro-N-((1r,4R)-4-((5-(2-(2,6-dioxopiperidin-3-yl)-1-oxoisoindolin-4-yl)pent-4-yn-1-yl)carbamoyl)cyclohexyl)-2″-oxo-4′-phenyldispiro[cyclohexane-1,2′-pyrrolidine-3′,3″-indoline]-5′-carboxamide] showed an IC50 of over 100 nM. `COc1cc(C(=O)N2CCC(C#Cc3cccc4c3CN(C3CCC(=O)NC3=O)C4=O)CC2)ccc1NC(=O)[C@@H]1NC2(CCCCC2)[C@@]2(C(=O)Nc3cc(Cl)ccc32)[C@H]1c1cccc(Cl)c1F` (stereo partly drawn) [Cpd. No. 28, (3′R,4′S,5′R)-6″-chloro-4′-(3-chloro-2-fluorophenyl)-N-(4-(4-((2-(2,6-dioxopiperidin-3-yl)-1-oxoisoindolin-4-yl)ethynyl)piperidine-1-carbonyl)-2-methoxyphenyl)-2″-oxodispiro[cyclohexane-1,2′-pyrrolidine-3′,3″-indoline]-5′-carboxamide] was tested, and the IC50 was over 100 nM. In the case of `O=C1CCC(N2Cc3c(C#CC4CCN(C(=O)CC5CCN(C(=O)[C@@H]6NC7(CCCCC7)[C@@]7(C(=O)Nc8cc(Cl)ccc87)[C@H]6c6cccc(Cl)c6F)CC5)CC4)cccc3C2=O)C(=O)N1` (stereo partly drawn) [Cpd. No. 29, 3-(4-((1-(2-(1-((3′R,4′S,5′R)-6″-chloro-4′-(3-chloro-2-fluorophenyl)-2″-oxodispiro[cyclohexane-1,2′-pyrrolidine-3′,3″-indoline]-5′-carbonyl)piperidin-4-yl)acetyl)piperidin-4-yl)ethynyl)-1-oxoisoindolin-2-yl)piperidine-2,6-dione], the IC50 is reported as over 100 nM. In the case of `CC1(C#Cc2cccc3c2CN(C2CCC(=O)NC2=O)C3=O)CCN(C(=O)[C@H]2CC[C@H](NC(=O)[C@@H]3NC4(CCCCC4)[C@@]4(C(=O)Nc5cc(Cl)ccc54)[C@H]3c3cccc(Cl)c3F)CC2)CC1` (stereo partly drawn) [Cpd. No. 30, (3′R,4′S,5′R)-6″-chloro-4′-(3-chloro-2-fluorophenyl)-N-(4-(4-((2-(2,6-dioxopiperidin-3-yl)-1-oxoisoindolin-4-yl)ethynyl)-4-methylpiperidine-1-carbonyl)cyclohexyl)-2″-oxodispiro[cyclohexane-1,2′-pyrrolidine-3′,3″-indoline]-5′-carboxamide], the IC50 is reported as 1.2 nM.
